Data reported in patent US20100204265A1 (priority 2009, published 2010).

Each compound was assayed on ET (Huh-lucubineo-ET) cell line harboring I389luc-ubi-neo/NS3-3′/ET HCV replicon (assay: Replicon assay (HCV replicon, luciferase readout)). Conditions: Hepatitis C virus.
Type: cell-based
Summary of the method: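 Compounds at 10-point 2-fold dilutions (overall 0.1 nM to […], 0.5% DMSO) were applied to ET cells carrying a luciferase-neo HCV replicon, seeded a day earlier. After 48-72 hours, luciferase-based % inhibition was fitted with a Hill equation for EC50, and parallel WST-1 readings gave TC50.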

Structure (SMILES)	EC50
O=C(Cc1cn2cc(-c3ccoc3)cc(C(F)(F)F)c2n1)N1CCCC1c1cccs1 (stereo not drawn) [Compound 188, 2-(6-Furan-3-yl-8-trifluoromethyl-imidazo[1,2-a]pyridin-2-yl)-1-(2-thiophen-2-yl-pyrrolidin-1-yl)-ethanone]	> 50 µM
O=C(Cc1cn2cc(-c3ccoc3)cc(C(F)(F)F)c2n1)NS(=O)(=O)c1cccs1 [Compound 189, Thiophene-2-sulfonic acid [2-(6-furan-3-yl-8-trifluoromethyl-imidazo[1,2-a]pyridin-2-yl)-acetyl]-amide]	> 50 µM
CS(=O)(=O)NC1CN(C(=O)Cc2cn3cc(-c4ccoc4)cc(C(F)(F)F)c3n2)C1 [Compound 190, N-{1-[2-(6-Furan-3-yl-8-trifluoromethyl-imidazo[1,2-a]pyridin-2-yl)-acetyl]-azetidin-3-yl}-methanesulfonamide]	> 50 µM
O=C(Cc1cn2cc(-c3ccoc3)cc(C(F)(F)F)c2n1)N1CC=C(c2nccs2)CC1 [Compound 191, 2-(6-Furan-3-yl-8-trifluoromethyl-imidazo[1,2-a]pyridin-2-yl)-1-(4-thiazol-2-yl-3,6-dihydro-2H-pyridin-1-yl)-ethanone]	> 50 µM
O=C(Cc1cn2cc(-c3ccoc3)cc(C(F)(F)F)c2n1)NCCc1ccccc1 [Compound 192, 2-(6-Furan-3-yl-8-trifluoromethyl-imidazo[1,2-a]pyridin-2-yl)-N-phenethyl-acetamide]	> 50 µM
O=C(NC1CCC(c2ccccc2)CC1)c1nc2c(C(F)(F)F)cc(-c3ccoc3)cn2c1Cl (stereo not drawn) [Compound 193, 3-Chloro-6-furan-3-yl-8-trifluoromethyl-imidazo[1,2-a]pyridine-2-carboxylic acid (4-phenyl-cyclohexyl)-amide]	2.5 µM
O=C(c1ccccc1)C1CCN(C(=O)c2nc3c(C(F)(F)F)cc(-c4ccoc4)cn3c2Cl)CC1 [Compound 194, (4-Benzoyl-piperidin-1-yl)-(3-chloro-6-furan-3-yl-8-trifluoromethyl-imidazo[1,2-a]pyridin-2-yl)-methanone]	0.889 µM
O=C(c1nc2c(C(F)(F)F)cc(-c3ccoc3)cn2c1Cl)N1CCC(N2CCCC2)CC1 [Compound 195, (3-Chloro-6-furan-3-yl-8-trifluoromethyl-imidazo[1,2-a]pyridin-2-yl)-(4-pyrrolidin-1-yl-piperidin-1-yl)-methanone]	> 50 µM
O=C(c1nc2c(C(F)(F)F)cc(-c3ccoc3)cn2c1Cl)N1CCC(n2ccnc2)CC1 [Compound 197, (3-Chloro-6-furan-3-yl-8-trifluoromethyl-imidazo[1,2-a]pyridin-2-yl)-(4-imidazol-1-yl-piperidin-1-yl)-methanone]	3.5 µM
O=C(c1nc2c(C(F)(F)F)cc(-c3ccoc3)cn2c1Cl)N1CC=C(C#Cc2cccnc2)CC1 [Compound 198, (3-Chloro-6-furan-3-yl-8-trifluoromethyl-imidazo[1,2-a]pyridin-2-yl)-(4-pyridin-3-ylethynyl-3,6-dihydro-2H-pyridin-1-yl)-methanone]	14.6 µM
CC(C)(C)C#CC1=CCN(C(=O)c2nc3c(C(F)(F)F)cc(-c4ccoc4)cn3c2Cl)CC1 [Compound 199, (3-Chloro-6-furan-3-yl-8-trifluoromethyl-imidazo[1,2-a]pyridin-2-yl)-[4-(3,3-dimethyl-but-1-ynyl)-3,6-dihydro-2H-pyridin-1-yl]-methanone]	> 50 µM
O=C(c1nc2c(C(F)(F)F)cc(-c3ccoc3)cn2c1Cl)N1CC=C(C#CC2CCCC2)CC1 [Compound 200, (3-Chloro-6-furan-3-yl-8-trifluoromethyl-imidazo[1,2-a]pyridin-2-yl)-(4-cyclopentylethynyl-3,6-dihydro-2H-pyridin-1-yl)-methanone]	> 50 µM
O=C(c1nc2c(C(F)(F)F)cc(-c3ccoc3)cn2c1Cl)N1CC=C(c2ncccc2O)CC1 [Compound 201, (3-Chloro-6-furan-3-yl-8-trifluoromethyl-imidazo[1,2-a]pyridin-2-yl)-(3-hydroxy-3′,6′-dihydro-2′H-[2,4′]bipyridinyl-1′-yl)-methanone]	15.3 µM
O=C(c1nc2c(C(F)(F)F)cc(-c3ccoc3)cn2c1Cl)N1CC=C(c2ncccc2Cl)CC1 [Compound 202, (3-Chloro-3′,6′-dihydro-2′H-[2,4′]bipyridinyl-1′-yl)-(3-chloro-6-furan-3-yl-8-trifluoromethyl-imidazo[1,2-a]pyridin-2-yl)-methanone]	0.329 µM
O=C(c1nc2c(C(F)(F)F)cc(-c3ccoc3)cn2c1Cl)N1CC=C(c2cncc(F)c2)CC1 [Compound 203, (3-Chloro-6-furan-3-yl-8-trifluoromethyl-imidazo[1,2-a]pyridin-2-yl)-(5-fluoro-3′,6′-dihydro-2′H-[3,4′]bipyridinyl-1′-yl)-methanone]	0.975 µM
O=C(c1nc2c(C(F)(F)F)cc(-c3ccoc3)cn2c1Cl)N1CC=C(c2cccc(F)n2)CC1 [Compound 204, (3-Chloro-6-furan-3-yl-8-trifluoromethyl-imidazo[1,2-a]pyridin-2-yl)-(6-fluoro-3′,6′-dihydro-2′H-[2,4′]bipyridinyl-1′-yl)-methanone]	3.71 µM
O=C(c1nc2c(C(F)(F)F)cc(-c3ccoc3)cn2c1Cl)N1CC=C(c2ncccc2C(F)(F)F)CC1 [Compound 205, (3-Chloro-6-furan-3-yl-8-trifluoromethyl-imidazo[1,2-a]pyridin-2-yl)-(3-trifluoromethyl-3′,6′-dihydro-2′H-[2,4′]bipyridinyl-1′-yl)-methanone]	18 µM
Cc1ccnc(C2=CCN(C(=O)c3nc4c(C(F)(F)F)cc(-c5ccoc5)cn4c3Cl)CC2)c1F [Compound 206, (3-Chloro-6-furan-3-yl-8-trifluoromethyl-imidazo[1,2-a]pyridin-2-yl)-(3-fluoro-4-methyl-3′,6′-dihydro-2′H-[2,4′]bipyridinyl-1′-yl)-methanone]	5.95 µM
Cc1ccc(F)c(C2=CCN(C(=O)c3nc4c(C(F)(F)F)cc(-c5ccoc5)cn4c3Cl)CC2)n1 [Compound 207, (3-Chloro-6-furan-3-yl-8-trifluoromethyl-imidazo[1,2-a]pyridin-2-yl)-(3-fluoro-6-methyl-3′,6′-dihydro-2′H-[2,4′]bipyridinyl-1′-yl)-methanone]	17.9 µM
O=C(c1nc2c(C(F)(F)F)cc(-c3ccoc3)cn2c1Cl)N1CC=C(c2ncncc2F)CC1 [Compound 208, (3-Chloro-6-furan-3-yl-8-trifluoromethyl-imidazo[1,2-a]pyridin-2-yl)-[4-(5-fluoro-pyrimidin-4-yl)-3,6-dihydro-2H-pyridin-1-yl]-methanone]	0.312 µM
O=C(c1nc2c(C(F)(F)F)cc(-c3ccoc3)cn2c1Cl)N1CC=C(c2cc(F)ccn2)CC1 [Compound 209, (3-Chloro-6-furan-3-yl-8-trifluoromethyl-imidazo[1,2-a]pyridin-2-yl)-(4-fluoro-3′,6′-dihydro-2′H-[2,4′]bipyridinyl-1′-yl)-methanone]	0.399 µM
O=C(c1nc2c(C(F)(F)F)cc(-c3ccoc3)cn2c1Cl)N1CC=C(c2ccccn2)CC1 [Compound 210, (3-Chloro-6-furan-3-yl-8-trifluoromethyl-imidazo[1,2-a]pyridin-2-yl)-(3′,6′-dihydro-2′H-[2,4′]bipyridinyl-1′-yl)-methanone]	0.481 µM
N#Cc1cccnc1C1=CCN(C(=O)c2nc3c(C(F)(F)F)cc(-c4ccoc4)cn3c2Cl)CC1 [Compound 211, 1′-(3-Chloro-6-furan-3-yl-8-trifluoromethyl-imidazo[1,2-a]pyridine-2-carbonyl)-1′,2′,3′,6′-tetrahydro-[2,4′]bipyridinyl-3-carbonitrile]	1.48 µM
O=C(c1nc2c(C(F)(F)F)cc(-c3ccoc3)cn2c1Cl)N1CC=C(/C=C/C2CC2)CC1 [Compound 212, (3-Chloro-6-furan-3-yl-8-trifluoromethyl-imidazo[1,2-a]pyridin-2-yl)-[4-(2-cyclopropyl-vinyl)-3,6-dihydro-2H-pyridin-1-yl]-methanone]	0.338 µM
O=C(c1nc2c(C(F)(F)F)cc(-c3ccoc3)cn2c1Cl)N1CC=C(C2=CCNC2)CC1 [Compound 213, (3-Chloro-6-furan-3-yl-8-trifluoromethyl-imidazo[1,2-a]pyridin-2-yl)-[4-(2,5-dihydro-1H-pyrrol-3-yl)-3,6-dihydro-2H-pyridin-1-yl]-methanone]	0.942 µM
O=C(c1nc2c(C(F)(F)F)cc(-c3ccccc3)cn2c1Cl)N1CC=C(c2nccs2)C1 [Compound 215, (3-Chloro-6-phenyl-8-trifluoromethyl-imidazo[1,2-a]pyridin-2-yl)-(3-thiazol-2-yl-2,5-dihydro-pyrrol-1-yl)-methanone]	0.0322 µM
O=C(c1nc2c(C(F)(F)F)cc(-c3cccnc3)cn2c1Cl)N1CC=C(c2nccs2)C1 [Compound 216, (3-Chloro-6-pyridin-3-yl-8-trifluoromethyl-imidazo[1,2-a]pyridin-2-yl)-(3-thiazol-2-yl-2,5-dihydro-pyrrol-1-yl)-methanone]	0.111 µM
O=C(c1nc2c(C(F)(F)F)cc(C3=CCCCC3)cn2c1Cl)N1CC=C(c2nccs2)C1 [Compound 217, (3-Chloro-6-cyclohex-1-enyl-8-trifluoromethyl-imidazo[1,2-a]pyridin-2-yl)-(3-thiazol-2-yl-2,5-dihydro-pyrrol-1-yl)-methanone]	0.0505 µM
O=C(c1nc2c(C(F)(F)F)cc(C3=CCNCC3)cn2c1Cl)N1CC=C(c2nccs2)C1 [Compound 218, [3-Chloro-6-(1,2,3,6-tetrahydro-pyridin-4-yl)-8-trifluoromethyl-imidazo[1,2-a]pyridin-2-yl]-(3-thiazol-2-yl-2,5-dihydro-pyrrol-1-yl)-methanone]	2 µM
O=C(c1nc2c(C(F)(F)F)cc(-c3ccoc3)cn2c1Cl)N1CCC(c2ncccc2F)CC1 [Compound 219, (3-Chloro-6-furan-3-yl-8-trifluoromethyl-imidazo[1,2-a]pyridin-2-yl)-(3-fluoro-3′,4′,5′,6′-tetrahydro-2′H-[2,4′]bipyridinyl-1′-yl)-methanone]	0.0651 µM
